Assays:
rodent HER2/neu receptor = target: T1, rodent HER2/neu receptor (Rattus norvegicus, UniProt P06494); experiment: Autophosphorylation of isolated HER2/neu (western blot); format: biochemical; details: preincubation 20 minutes prior to 10 μM ATP
T1 construct: made in house; host or cells: MCNeuA mouse mammary carcinoma cells (MMTV/neu transgenic), partially purified by wheat germ agglutinin chromatography
Method: IGF-1 and HER2/neu receptors were partially purified by WGA chromatography of cells overexpressing the protein of interest. To isolate IGF-1R, CHO cells transfected with and overexpressing the human IGF-1R (CHOIGF-1R) were plated in T-150 flasks and grown in DMEM supplemented with 10% fetal calf serum (FCS) until 80% confluent. Cells were harvested in the basal state and solubilized in 50 mM HEPES, 10% glycerol, 1% Triton X-100, 150 mM NaCl, 5 μM EGTA, 0.24 mg/ml aminoethyl-benzensulfonyl fluoride (AEBSF), 10 μg/ml aprotinin, 25 mM benzamidine, 10 μg soybean trypsin inhibitor, and 5 μg/ml leuptin for one hour at 4° C. Samples were centrifuged for 60 minutes at 100,000 g and solubilized extract collected. Rodent HER2/neu receptors were collected from MCNeuA cells crown under identical conditions and processed similarly. […] WGA fractions containing RTK of interest were determined by SDS page and a western blot that employed antibodies against either the IGF-1R or HER2/neu as appropriate.
Autophosphorylation of HER2/neu in WGA preparations enriched in this RTK were determined in the absence of ligand. […] Following transfer to nitrocellulose membrane, receptor autophosphorylation was determined by a western blot that employed a phosphospecific antibody against the pNeu (Tyr1248) diluted 1:1000 in Superblock. […] Values were determined by scanning densitometry.

MCF-7 cells = experiment: Proliferation of MCF-7 cells in 10% fetal calf serum (CyQUANT); format: cell-based, human; details: MCF-7, 10% fetal calf serum
Method: MCF-7 or MCNeuA cells were plated in 96 well plates (5×10^3 cells/well) in DMEM supplemented with 10% FCS. One plate was prepared for each harvest day. […] Microplate cultures were harvested on days 0, 1, 2, and 3 by inverting the microplate onto paper towels with gentle blotting to remove growth medium without disrupting adherent cells. Each plate was kept at −80° C. until the end of the experiment (day 3) when all of the plates were thawed and assayed together. After thawing, 200 μl of CyQUANT GR solution was added to each well and the plates were incubated in the dark for two to five minutes. Fluorescence was measured with a SpectraMax Gemini XS fluorescence microplate reader (Molecular Devices, Sunnyvale, Calif.) with 480-nm excitation and 520-nm emission. Proliferation index was calculated as the percent of nucleotide content versus control cells at day 0.

IGF-1R = target: T2, IGF-1R (Mus musculus, UniProt Q60751); experiment: IGF-1R autophosphorylation in excised MCNeuA tumors (ELISA); format: in vivo; details: 37.5 mg/kg i.p. three times a week, 16 hours after final dose, vs vehicle
T2 construct: from tissue; host or cells: MCNeuA tumours excised from neuTg mice
T2 sequence (Q60751 31-1373): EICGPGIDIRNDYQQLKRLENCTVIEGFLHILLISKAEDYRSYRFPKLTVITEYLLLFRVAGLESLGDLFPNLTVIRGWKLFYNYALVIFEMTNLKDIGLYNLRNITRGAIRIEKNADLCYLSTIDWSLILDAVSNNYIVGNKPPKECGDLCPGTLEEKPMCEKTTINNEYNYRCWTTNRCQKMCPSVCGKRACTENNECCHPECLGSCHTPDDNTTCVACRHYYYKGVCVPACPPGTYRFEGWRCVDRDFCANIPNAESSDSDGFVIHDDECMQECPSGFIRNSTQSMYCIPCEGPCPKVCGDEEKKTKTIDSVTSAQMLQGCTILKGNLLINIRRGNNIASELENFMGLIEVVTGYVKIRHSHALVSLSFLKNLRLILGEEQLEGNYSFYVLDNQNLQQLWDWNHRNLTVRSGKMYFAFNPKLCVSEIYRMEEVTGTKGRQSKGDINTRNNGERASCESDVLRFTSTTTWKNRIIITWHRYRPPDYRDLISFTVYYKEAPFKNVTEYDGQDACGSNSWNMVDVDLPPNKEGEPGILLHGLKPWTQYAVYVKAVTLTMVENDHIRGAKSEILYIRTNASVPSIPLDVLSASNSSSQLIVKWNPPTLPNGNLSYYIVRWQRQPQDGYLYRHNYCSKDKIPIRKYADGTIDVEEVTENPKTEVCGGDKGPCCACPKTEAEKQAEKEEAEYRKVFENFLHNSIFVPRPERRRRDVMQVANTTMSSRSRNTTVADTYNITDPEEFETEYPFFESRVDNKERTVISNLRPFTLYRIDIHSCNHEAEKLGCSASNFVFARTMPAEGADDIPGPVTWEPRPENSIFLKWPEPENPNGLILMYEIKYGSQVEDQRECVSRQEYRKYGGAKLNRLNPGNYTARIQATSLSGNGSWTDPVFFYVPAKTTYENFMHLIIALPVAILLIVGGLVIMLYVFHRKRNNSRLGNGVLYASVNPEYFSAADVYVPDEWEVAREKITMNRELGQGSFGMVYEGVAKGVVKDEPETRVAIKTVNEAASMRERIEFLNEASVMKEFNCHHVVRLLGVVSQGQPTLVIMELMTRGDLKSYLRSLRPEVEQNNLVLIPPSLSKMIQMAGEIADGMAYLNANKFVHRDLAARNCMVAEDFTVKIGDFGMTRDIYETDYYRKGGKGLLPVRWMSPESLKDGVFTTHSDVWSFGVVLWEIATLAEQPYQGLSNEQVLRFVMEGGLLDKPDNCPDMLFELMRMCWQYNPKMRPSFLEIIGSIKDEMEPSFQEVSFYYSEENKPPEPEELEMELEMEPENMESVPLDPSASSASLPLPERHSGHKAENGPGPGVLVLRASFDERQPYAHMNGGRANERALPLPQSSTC
Method: (§1) Tumors were homogenized in 50 mM HEPES, pH 7.6, 150 mM NaCl, 1 mM PMSF, 2 μM leupeptin, 2 μM Pepstatin A, and 2 mM Na3VO4, and solubilized by the addition of 1% Triton x-100. Soluble lysates were prepared as described for cell culture studies. Tyrosine phosphorylation of IGF-1R was determined by ELISA as described for MCF-7 cells. Phosphorylation of HER2/neu was determined by western blot employing the phospho-specific antibody as in the cell culture studies. The degree of phosphorylation for each receptor was normalized to total receptor protein content in the tumor samples as determined by western blotting with antibodies against the human IGF-1R and the rodent HER2/neu.

HER2/neu = target: T3, HER2/neu (Rattus norvegicus, UniProt P06494); experiment: HER2/neu phosphorylation in excised MCNeuA tumors (western blot); format: in vivo, mouse; details: 37.5 mg/kg i.p. three times a week, 16 hours after final dose, vs vehicle
T3 construct: expressed in transfected cells; host or cells: MCNeuA mouse mammary carcinoma cells (MMTV/neu transgene), in culture or grown as tumours in neuTg mice
T3 sequence (P06494 23-1257): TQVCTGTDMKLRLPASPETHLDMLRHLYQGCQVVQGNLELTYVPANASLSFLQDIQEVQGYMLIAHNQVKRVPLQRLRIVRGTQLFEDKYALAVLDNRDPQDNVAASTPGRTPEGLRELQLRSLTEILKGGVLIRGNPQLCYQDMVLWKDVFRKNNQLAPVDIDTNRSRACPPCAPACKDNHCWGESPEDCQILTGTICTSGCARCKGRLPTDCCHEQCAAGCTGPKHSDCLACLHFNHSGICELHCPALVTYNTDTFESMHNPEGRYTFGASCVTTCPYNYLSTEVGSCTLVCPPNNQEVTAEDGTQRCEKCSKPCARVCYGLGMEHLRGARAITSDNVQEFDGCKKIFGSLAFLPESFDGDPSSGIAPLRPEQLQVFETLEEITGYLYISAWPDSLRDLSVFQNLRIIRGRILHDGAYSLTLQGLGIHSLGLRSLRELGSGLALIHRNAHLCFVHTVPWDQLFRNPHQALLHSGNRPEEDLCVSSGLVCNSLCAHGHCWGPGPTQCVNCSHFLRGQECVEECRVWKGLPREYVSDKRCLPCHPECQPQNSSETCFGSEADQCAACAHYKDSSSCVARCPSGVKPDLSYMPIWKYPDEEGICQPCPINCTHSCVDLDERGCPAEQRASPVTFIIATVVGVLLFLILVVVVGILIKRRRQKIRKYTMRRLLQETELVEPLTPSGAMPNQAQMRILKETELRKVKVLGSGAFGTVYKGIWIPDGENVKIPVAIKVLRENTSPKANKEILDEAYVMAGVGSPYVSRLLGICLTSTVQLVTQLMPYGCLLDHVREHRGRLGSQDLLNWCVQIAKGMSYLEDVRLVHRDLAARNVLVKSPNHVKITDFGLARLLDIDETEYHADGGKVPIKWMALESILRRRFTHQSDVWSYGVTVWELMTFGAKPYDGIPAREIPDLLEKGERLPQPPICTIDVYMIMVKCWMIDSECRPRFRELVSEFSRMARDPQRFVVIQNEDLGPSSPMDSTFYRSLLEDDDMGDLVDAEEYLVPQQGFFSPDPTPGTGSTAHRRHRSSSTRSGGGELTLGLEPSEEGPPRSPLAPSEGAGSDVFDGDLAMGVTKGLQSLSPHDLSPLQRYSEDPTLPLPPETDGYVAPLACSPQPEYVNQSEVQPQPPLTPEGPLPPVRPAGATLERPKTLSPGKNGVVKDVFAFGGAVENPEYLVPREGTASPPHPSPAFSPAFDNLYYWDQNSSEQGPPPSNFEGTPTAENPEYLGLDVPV
Method: as §1

Akt/BAD pathway = experiment: IGF-1 stimulated Akt and BAD phosphorylation in MCF-7 cells (western blot); format: cell-based, human; details: 1 nM IGF-1
Method: Inhibition of IGF-1-stimulated activation of serine kinase Akt was determined in the lysates prepared for the IGF-1R phosphotyrosine ELISA described above. 12 μg of sample was subjected to SDS-PAGE, transfer-ed to a nitrocellulose membrane, and […] quantified by blotting overnight at 4 C with a phospho-specific antibody to Akt (ser473) diluted 1:1000 in Superblock. Next, blots were washed with 3 times with TBST, then incubated with HRP conjugated sheep anti-rabbit IgG diluted 1:10,000 in Superblock for 90 minutes at room temperature. Phosphorylation of the apoptotic protein BAD was determined in the same manner by blotting with a phospho-specific antibody to BAD (ser136) (1:1,000).

SH-SY5Y and SHEP cells = experiment: IGF-I stimulated motility of neuroblastoma cells on gold particle-coated coverslips; format: cell-based, human; details: 30 μM NDGA, 1 nM IGF-I, 6 h
Method: Measurement of cell motility. Neuroblastoma cells were plated on gold particle-coated coverslips (prepared as described in (30)) in serum-free media at a density of 25,000 cells per coverslip. The cells were incubated for 2 h to allow adhesion to the coverslip. […] 1 nM IGF-I was then added to some wells. Incubation continued for 6 h, followed by fixation with 3.5% glutaraldehyde. Coverslips were mounted on glass slides, then viewed on a Lietz Orthoplan inverted microscope attached to a Sony videoprocessor. Digital images of the tracks etched into the gold by the cells from 3 separately treated coverslips per condition were collected at 200× magnification using Adobe Photoshop software. For each condition, the areas of 120 tracks made by individual cells were measured with NIH Image 1.61 software.

EGF receptor = EGF receptor (Homo sapiens, UniProt P00533); details: Seufferlein et al. 2002; cited from earlier work
Chain of EGF receptor (P00533 25-1210): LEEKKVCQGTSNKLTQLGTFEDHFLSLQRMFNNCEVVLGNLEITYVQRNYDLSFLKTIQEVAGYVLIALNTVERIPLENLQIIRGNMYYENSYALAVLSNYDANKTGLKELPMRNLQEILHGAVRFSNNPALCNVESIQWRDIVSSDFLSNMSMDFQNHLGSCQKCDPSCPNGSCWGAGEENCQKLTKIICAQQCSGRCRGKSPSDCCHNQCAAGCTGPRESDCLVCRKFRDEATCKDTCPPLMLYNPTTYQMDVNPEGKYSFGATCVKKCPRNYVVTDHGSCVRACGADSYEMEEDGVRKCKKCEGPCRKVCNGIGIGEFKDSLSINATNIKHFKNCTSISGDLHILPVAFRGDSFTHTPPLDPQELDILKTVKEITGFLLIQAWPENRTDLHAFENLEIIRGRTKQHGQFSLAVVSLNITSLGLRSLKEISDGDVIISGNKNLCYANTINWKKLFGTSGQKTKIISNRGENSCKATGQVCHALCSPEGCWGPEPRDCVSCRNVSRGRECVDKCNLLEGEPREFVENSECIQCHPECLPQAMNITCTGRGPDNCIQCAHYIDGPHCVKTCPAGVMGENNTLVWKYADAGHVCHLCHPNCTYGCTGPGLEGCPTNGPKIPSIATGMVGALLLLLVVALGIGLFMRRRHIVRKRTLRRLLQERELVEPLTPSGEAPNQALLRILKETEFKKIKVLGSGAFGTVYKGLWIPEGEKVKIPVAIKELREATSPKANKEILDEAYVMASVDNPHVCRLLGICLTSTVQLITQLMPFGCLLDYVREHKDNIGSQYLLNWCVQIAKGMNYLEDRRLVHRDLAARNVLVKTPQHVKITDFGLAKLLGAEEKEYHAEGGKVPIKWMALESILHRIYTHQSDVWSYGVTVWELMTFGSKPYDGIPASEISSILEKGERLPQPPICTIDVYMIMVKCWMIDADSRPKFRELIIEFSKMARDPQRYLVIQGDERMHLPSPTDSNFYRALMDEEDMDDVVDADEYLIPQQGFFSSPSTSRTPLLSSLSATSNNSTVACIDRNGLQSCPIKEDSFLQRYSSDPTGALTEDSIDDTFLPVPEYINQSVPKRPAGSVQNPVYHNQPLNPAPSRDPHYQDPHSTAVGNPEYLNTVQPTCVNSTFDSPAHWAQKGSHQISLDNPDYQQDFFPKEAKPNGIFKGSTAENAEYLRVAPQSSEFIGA

T1 sequence (P06494 23-1257): as the sequence (P06494 23-1257) above

CC(Cc1ccc(O)c(O)c1)C(C)Cc1ccc(O)c(O)c1 (centres unmarked) [NDGA, nordihydroguaiaretic acid]
ATP-induced increase in ligand-independent HER2/neu autophosphorylation (rodent HER2/neu receptor): abolished | cell number (MCF-7 cells; 60 μM, within 24 hours): dramatically reduced | lowest concentration significantly reducing rate of proliferation (MCF-7 cells; up to 3 days): 15 µM | IGF-1R autophosphorylation in tumors (IGF-1R): reduced | HER2/neu receptor autophosphorylation in tumors (HER2/neu): reduced | IGF-1 stimulated phosphorylation of Akt and BAD (Akt/BAD pathway): reduced in a dose-dependent manner | IGF-I induced increase in motility (SH-SY5Y and SHEP cells): strongly suppressed | EGF receptor phosphorylation (EGF receptor): no affect

Source: US8143226B2, “Tyrosine kinase receptor antagonists and methods of treatment for breast cancer” (The Regents of the University of California, priority 2005, dated 2012)
